Test results from PubChem BioAssay AID248 (DTP/NCI, 2004).
Values joined by “and” are separate entries in the source; they are usually repeats but may differ in a detail not shown here. Equal entries are not always repeated. Inconclusive results and toxic doses are left out.

Tested on: L1210 leukemia ip in BDF1 mice, survival T/C
Test: NCI In Vivo Anticancer Drug Screen. Data for tumor model L1210 Leukemia (intraperitoneal) in B6D2F1 (BDF1) mice
Conditions: endpoint: mean survival time, higher = longer survival
Method in brief: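 Value reflects the ratio of survival in compound-treated mice to survival in vehicle-treated controls, with both groups carrying the same transplanted tumor.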

[1] = dose: 12.5 mg/kg/injection, schedule: Q01DX009 (ip), vehicle: saline with Tween-80
[2] = dose: 25.0 mg/kg/injection, schedule: Q01DX009 (ip), vehicle: saline with Tween-80
[3] = dose: 50.0 mg/kg/injection, schedule: Q01DX009 (ip), vehicle: saline with Tween-80
[4] = dose: 100.0 mg/kg/injection, schedule: Q04DX003 (ip), vehicle: saline with Tween-80
[5] = dose: 100.0 mg/kg/injection, schedule: Q04DX003 (ip), vehicle: Klucel (hydroxypropylcellulose) (HPC)
[6] = dose: 200.0 mg/kg/injection, schedule: Q04DX003 (ip), vehicle: Klucel (hydroxypropylcellulose) (HPC)
[7] = dose: 400.0 mg/kg/injection, schedule: Q04DX003 (ip), vehicle: Klucel (hydroxypropylcellulose) (HPC)
[8] = dose: 100.0 mg/kg/injection, schedule: Q01DX001 (ip), vehicle: Klucel (hydroxypropylcellulose) (HPC)
[9] = dose: 200.0 mg/kg/injection, schedule: Q01DX001 (ip), vehicle: Klucel (hydroxypropylcellulose) (HPC)
[10] = dose: 400.0 mg/kg/injection, schedule: Q01DX001 (ip), vehicle: Klucel (hydroxypropylcellulose) (HPC)
[11] = dose: 100.0 mg/kg/injection, schedule: Q01DX009 (ip), vehicle: Klucel (hydroxypropylcellulose) (HPC)
[12] = dose: 200.0 mg/kg/injection, schedule: Q01DX009 (ip), vehicle: Klucel (hydroxypropylcellulose) (HPC)
[13] = dose: 400.0 mg/kg/injection, schedule: Q01DX009 (ip), vehicle: Klucel (hydroxypropylcellulose) (HPC)
[14] = dose: 200.0 mg/kg/injection, schedule: Q04DX003 (ip), vehicle: saline with Tween-80
[15] = dose: 400.0 mg/kg/injection, schedule: Q04DX003 (ip), vehicle: saline with Tween-80
[16] = dose: 400.0 mg/kg/injection, schedule: Q04DX002 (ip), vehicle: Klucel (hydroxypropylcellulose) (HPC)
[17] = dose: 100.0 mg/kg/injection, schedule: Q04DX002 (ip), vehicle: Klucel (hydroxypropylcellulose) (HPC)
[18] = dose: 200.0 mg/kg/injection, schedule: Q04DX002 (ip), vehicle: Klucel (hydroxypropylcellulose) (HPC)
[19] = dose: 100.0 mg/kg/injection, schedule: Q01DX009 (ip), vehicle: saline with Tween-80
[20] = dose: 200.0 mg/kg/injection, schedule: Q01DX009 (ip), vehicle: saline with Tween-80
[21] = dose: 400.0 mg/kg/injection, schedule: Q01DX009 (ip), vehicle: saline with Tween-80
[22] = dose: 100.0 mg/kg/injection, schedule: Q01DX001 (ip), vehicle: saline with Tween-80
[23] = dose: 200.0 mg/kg/injection, schedule: Q01DX001 (ip), vehicle: saline with Tween-80
[24] = dose: 400.0 mg/kg/injection, schedule: Q01DX001 (ip), vehicle: saline with Tween-80

With `CN(C)CCOc1cccc(OCCN(C)C)n1` the T/C [1] was 104 % of control, the T/C [2] was 103 % of control and the T/C (dose: 25.0 mg/kg/injection, schedule: Q04DX003 (ip), vehicle: saline with Tween-80) was 96 % of control. The T/C [3] was 103 % of control, the T/C (dose: 50.0 mg/kg/injection, schedule: Q04DX003 (ip), vehicle: saline with Tween-80) was 96 % of control and the T/C [4] was 100 % of control.
In the case of `CCOc1ccc(OCC(=O)O)cc1`, the T/C [5] is reported as 93 % of control, the T/C [6] is reported as 89 % of control and the T/C [7] is reported as 89 % of control.
`COC(=O)c1cocc1C(=O)N1Cc2cc3ccccc3nc2C1` was tested, and the T/C [8] was 103 % of control, the T/C [9] was 95 % of control and the T/C [10] was 94 % of control.
`Cc1cn(C2CC(O)C(COP(=O)(N3CC3)N3CC3)O2)c(=O)[nH]c1=O` (configuration not stated) was tested, and the T/C (dose: 50.0 mg/kg/injection, schedule: Q04DX002 (ip), vehicle: saline) was 107 % of control, the T/C (dose: 100.0 mg/kg/injection, schedule: Q04DX002 (ip), vehicle: saline) was 100 % of control and the T/C (dose: 200.0 mg/kg/injection, schedule: Q04DX002 (ip), vehicle: saline) was 94 % of control.
With `CCOC(=O)C(C)(C)C(C)=O` the T/C [11] was 99 % of control, the T/C [5] was 103 % of control and the T/C [12] was 99 % of control. For the same compound, the T/C [6] was 103 % of control, the T/C [13] was 95 % of control and the T/C [7] was 97 % of control.
In the case of `Cc1ccccc1OP(=O)(Oc1ccccc1C)Oc1ccccc1C`, the T/C (dose: 50.0 mg/kg/injection, schedule: Q01DX001 (ip), vehicle: carboxymethylcellulose (CMC)) is reported as 104 % of control, the T/C (dose: 100.0 mg/kg/injection, schedule: Q01DX001 (ip), vehicle: carboxymethylcellulose (CMC)) is reported as 101 % of control and the T/C (dose: 200.0 mg/kg/injection, schedule: Q01DX001 (ip), vehicle: carboxymethylcellulose (CMC)) is reported as 95 % of control. For the same compound, the T/C (dose: 400.0 mg/kg/injection, schedule: Q01DX001 (ip), vehicle: carboxymethylcellulose (CMC)) was 93 % of control.
In the case of `CC(C)C(NC(=O)CCNC(=O)OCc1ccccc1)C(=O)O` (configuration not stated), the T/C [4] is reported as 97 % of control, the T/C [14] is reported as 97 % of control and the T/C [15] is reported as 97 % of control.
In the case of `CC1(C)Cc2cccc(OC(N)=O)c2O1`, the T/C (dose: 1.56 mg/kg/injection, schedule: Q04DX003 (ip), vehicle: Klucel (hydroxypropylcellulose) (HPC)) is reported as 94 % of control, the T/C (dose: 3.13 mg/kg/injection, schedule: Q04DX003 (ip), vehicle: Klucel (hydroxypropylcellulose) (HPC)) is reported as 103 % of control and the T/C (dose: 6.25 mg/kg/injection, schedule: Q04DX003 (ip), vehicle: Klucel (hydroxypropylcellulose) (HPC)) is reported as 104 % of control.
In the case of `NC(CSS(=O)(=O)O)=NCCc1ccccn1`, the T/C (dose: 12.5 mg/kg/injection, schedule: Q04DX002 (ip), vehicle: Klucel (hydroxypropylcellulose) (HPC)) is reported as 100 % of control, the T/C (dose: 25.0 mg/kg/injection, schedule: Q04DX002 (ip), vehicle: Klucel (hydroxypropylcellulose) (HPC)) is reported as 88 % of control and the T/C (dose: 50.0 mg/kg/injection, schedule: Q04DX002 (ip), vehicle: Klucel (hydroxypropylcellulose) (HPC)) is reported as 91 % of control. For the same compound, the T/C [16] was 90 % of control.
`c1ccc(-c2cc3c(nn2)[nH]c2ccccc23)cc1` was tested, and the T/C [17] was 105 % of control, the T/C [18] was 97 % of control and the T/C [16] was 87 % of control.
With `CC(=O)Nc1ccc(S(=O)(=O)NC(=O)NCCC(C)C)cc1` the T/C [4] was 94 % of control, the T/C [14] was 102 % of control and the T/C [15] was 102 % of control.
`CCOc1ccc(C(=O)/C=C\c2ccc(N(CC)CC)cc2)cc1` was tested, and the T/C [11] was 96 % of control, the T/C [12] was 93 % of control and the T/C [13] was 91 % of control.
With `COC(=O)c1ccc(-c2cc(Cl)c3cc(S(=O)(=O)F)ccc3n2)cc1` the T/C [19] was 94 % of control, the T/C [20] was 100 % of control and the T/C [21] was 95 % of control.
With `Nn1cnc2c(=S)nc[nH]c21` the T/C (dose: 42.0 mg/kg/injection, schedule: Q01DX015 (ip), vehicle: other) was 101 % of control, the T/C (dose: 72.0 mg/kg/injection, schedule: Q01DX015 (ip), vehicle: other) was 101 % of control and the T/C (dose: 100.0 mg/kg/injection, schedule: Q01DX001 (ip), vehicle: other) was 102 % of control. The T/C (dose: 177.0 mg/kg/injection, schedule: Q01DX001 (ip), vehicle: other) was 97 % of control, the T/C (dose: 177.0 mg/kg/injection, schedule: Q01DX001 (ip), vehicle: saline) was 102 % of control and the T/C (dose: 200.0 mg/kg/injection, schedule: Q01DX001 (ip), vehicle: other) was 102 % of control. For the same compound, the T/C (dose: 200.0 mg/kg/injection, schedule: Q01DX015 (ip), vehicle: other) was 86 % of control, the T/C (dose: 266.0 mg/kg/injection, schedule: Q01DX001 (ip), vehicle: other) was 115 % of control and the T/C (dose: 266.0 mg/kg/injection, schedule: Q01DX001 (ip), vehicle: saline) was 101 % of control. For the same compound, the T/C (dose: 400.0 mg/kg/injection, schedule: Q01DX001 (ip), vehicle: other) was 154 % of control and 164 % of control, the T/C (dose: 400.0 mg/kg/injection, schedule: Q01DX001 (ip), vehicle: saline) was 104 % of control and the T/C (dose: 600.0 mg/kg/injection, schedule: Q01DX001 (ip), vehicle: saline) was 167 % of control.
In the case of `c1cc2c(cc1NC1=NCCO1)CCC2`, the T/C (dose: 6.25 mg/kg/injection, schedule: Q01DX009 (ip), vehicle: saline with Tween-80) is reported as 107 % of control, the T/C [1] is reported as 95 % of control and the T/C [2] is reported as 114 % of control.
In the case of `CC(NC(=O)OCc1ccccc1)C(=O)O` (configuration not stated), the T/C [11] is reported as 97 % of control, the T/C [17] is reported as 95 % of control and the T/C [5] is reported as 100 % of control. The T/C [12] was 90 % of control, the T/C [18] was 94 % of control and the T/C [6] was 100 % of control. For the same compound, the T/C [13] was 97 % of control, the T/C [16] was 97 % of control and the T/C [7] was 95 % of control.
In the case of `Nc1nc2n(n1)C(=O)C(=O)N2`, the T/C (dose: 100.0 mg/kg/injection, schedule: Q01DX005 (ip), vehicle: Klucel (hydroxypropylcellulose) (HPC)) is reported as 109 % of control, the T/C [11] is reported as 101 % of control and the T/C [17] is reported as 101 % of control. The T/C (dose: 200.0 mg/kg/injection, schedule: Q01DX005 (ip), vehicle: Klucel (hydroxypropylcellulose) (HPC)) was 98 % of control, the T/C [12] was 104 % of control and the T/C [18] was 96 % of control. The T/C (dose: 400.0 mg/kg/injection, schedule: Q01DX005 (ip), vehicle: Klucel (hydroxypropylcellulose) (HPC)) was 95 % of control, the T/C [13] was 96 % of control and the T/C [16] was 96 % of control.
For `O=C(Nc1ccc(Cl)cc1[N+](=O)[O-])Oc1ccc(-c2ccccc2)cc1Cl`, the T/C [22] was 92 % of control, the T/C [19] was 95 % of control and 91 % of control and the T/C (dose: 100.0 mg/kg/injection, schedule: Q04DX002 (ip), vehicle: saline with Tween-80) was 101 % of control and 102 % of control. The T/C [4] was 97 % of control, the T/C [23] was 94 % of control and the T/C [20] was 94 % of control and 89 % of control. For the same compound, the T/C (dose: 200.0 mg/kg/injection, schedule: Q04DX002 (ip), vehicle: saline with Tween-80) was 101 % of control and 91 % of control, the T/C [14] was 103 % of control and the T/C [24] was 89 % of control. For the same compound, the T/C [21] was 99 % of control and 103 % of control, the T/C (dose: 400.0 mg/kg/injection, schedule: Q04DX002 (ip), vehicle: saline with Tween-80) was 88 % of control and 91 % of control and the T/C [15] was 103 % of control.
In the case of `O=C(/C=C\C(Cl)(Cl)Cl)c1ccccc1`, the T/C [8] is reported as 93 % of control, the T/C [9] is reported as 93 % of control and the T/C [10] is reported as 97 % of control.
With `CC12CC=C3c4ccc(S)cc4CCC3C1CCC2=O` (configuration not stated) the T/C [22] was 96 % of control, the T/C [23] was 89 % of control and the T/C [24] was 89 % of control.
With `CCOC(=O)Cc1cc(=O)[nH]n(-c2ccccc2)c1=O` the T/C (dose: 100.0 mg/kg/injection, schedule: Q04DX002 (ip), vehicle: gum acacia) was 100 % of control, the T/C (dose: 200.0 mg/kg/injection, schedule: Q04DX002 (ip), vehicle: gum acacia) was 89 % of control and the T/C (dose: 400.0 mg/kg/injection, schedule: Q04DX002 (ip), vehicle: gum acacia) was 96 % of control.
In the case of `CCOC(=O)C(COS(C)(=O)=O)NS(=O)(=O)c1ccc(C)cc1` (configuration not stated), the T/C [8] is reported as 98 % of control, the T/C [9] is reported as 104 % of control and the T/C [10] is reported as 95 % of control.
`CC(=O)Nc1ccc(OC(=O)Nc2ccc(Cl)cc2C(F)(F)F)cc1` was tested, and the T/C [3] was 93 % of control, the T/C [19] was 100 % of control and the T/C [20] was 104 % of control.
